From US8030352B2, “Method of producing retinyl esters” (Unilever Home & Personal Care USA, division of Conopco, Inc., priority 2002, dated 2011) come the findings set out here.

The nature of the data set: Retinyl ester stability in moisturising cream formulations (HPLC). In kind it is physicochemical. The settings on record: 0.03 and 0.15% retinyl ester in cream; stored at 22, 30, 45 and 50° C.; sampled over 35 days; FIGS. 1 and 2. The protocol:
Retinyl Linoleate from National Starch Corp. and the retinyl ester product from example 1 were blended into moisturising cream formulations shown below in Formulations 1 and 2 at a level of 0.03 and 0.15% of the retinyl ester. The creams were stored at 22° C., 30° C., 45° C. and 50° C. and samples taken at time 0, and twice more over 35 days as shown in FIGS. 1 and 2.
The retinyl esters were extracted from the base cream 60/40 acetone/acetonitrile, stirred for 10 minutes, filtered and then injected These were then analysed by HPLC according to the conditions below.
FIGS. 1 and 2 show the stability results for the samples.

On to `CCCCCCCCCCCCCCCC(=O)OC/C=C(C)/C=C/C=C(C)/C=C/C1=C(C)CCCC1(C)C` [retinyl palmitate], for which the “stability in moisturising cream” value is recorded as “only as stable as retinyl linoleate (National Starch)”.
